The test concerns the target T1, POsterior Segregation (Caenorhabditis elegans, UniProt G5EF15).
T1 sequence (G5EF15 whole entry): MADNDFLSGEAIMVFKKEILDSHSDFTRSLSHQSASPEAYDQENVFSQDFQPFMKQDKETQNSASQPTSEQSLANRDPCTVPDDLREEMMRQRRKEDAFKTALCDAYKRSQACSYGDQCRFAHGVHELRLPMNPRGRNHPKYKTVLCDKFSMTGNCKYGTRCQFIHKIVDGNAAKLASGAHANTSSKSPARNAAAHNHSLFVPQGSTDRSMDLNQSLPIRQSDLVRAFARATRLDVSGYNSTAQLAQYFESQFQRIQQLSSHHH
Kind of test: disruptors of C. elegans POS-1 RNA interaction – biochemical, fluorescence polarization, dose response (AID 1964). (Fluorescence polarisation rises when a labelled molecule tumbles more slowly, as on binding a larger partner.)

As a reminder, the EC50 is the concentration needed to bring the measured effect to its halfway point. Lower therefore signals a more potent agent.

The compound `CN(C)[C@@H]1C(=O)C(C(N)=O)C(=O)[C@@]2(O)C(=O)C3C(=O)c4c(O)cccc4[C@@](C)(O)C3C(O)C12` (some centres not stated) [SMR000875333] gave an EC50 of 54.1 µM. As for `CC(C)c1ccc(C2C(C#N)=C3Sc4ccccc4N3C(=N)C2C#N)cc1` (configuration not stated) [1-amino-3-(4-propan-2-ylphenyl)-3H-pyrido[2,1-b][1,3]benzothiazole-2,4-dicarbonitrile], the figure is 33 µM. Take `CCOC(=O)N1CCC2=C(C#N)C(=N)C(C#N)(C#N)[C@H](c3ccsc3)[C@H]2C1` [(8R,8aR)-6-amino-5,7,7-tricyano-8-(3-thienyl)-1,3,8,8a-tetrahydroisoquinoline-2-carboxylic acid ethyl ester]: the EC50 was 78.8 µM. Then `O=C(Cc1nc2cc(Cl)ccc2oc1=O)c1cccs1` [(3Z)-6-chloranyl-3-(2-oxidanylidene-2-thiophen-2-yl-ethylidene)-4H-1,4-benzoxazin-2-one], with 230 µM; and `CCC(C)N1C(=O)C(=CNNc2nc3c(c(=O)n(C)c(=O)n3C)n2C)C(=O)NC1=S` (configuration not stated) [8-[2-[(Z)-(1-butan-2-yl-4,6-dioxo-2-sulfanylidene-1,3-diazinan-5-ylidene)methyl]hydrazinyl]-1,3,7-trimethylpurine-2,6-dione], with > 300 µM; and `CC1(C)CC(=O)C2=C(C1)OC(=N)C(C#N)[C@@]21C(=O)N(CC(N)=O)c2ccccc21` (stereo partly drawn) [2-[(4R)-2-amino-3-cyano-2',5-diketo-7,7-dimethyl-spiro[6,8-dihydrochromene-4,3'-indoline]-1'-yl]acetamide], with > 300 µM.

On to `O=C1NC(=O)N(CCc2ccc(F)cc2)C(=O)C1=CNNC(=O)c1ccccc1` [N'-[(E)-[1-[2-(4-fluorophenyl)ethyl]-2,4,6-trioxo-1,3-diazinan-5-ylidene]methyl]benzohydrazide], for which the 50% effective concentration (EC50) was > 300 µM. Then `COc1cc(C2NC(=S)N=C(C)C2C(=O)OC(C)C)ccc1OC(C)C` (configuration not stated) [4-(3-methoxy-4-propan-2-yloxyphenyl)-6-methyl-2-sulfanylidene-3,4-dihydro-1H-pyrimidine-5-carboxylic acid propan-2-yl ester], with > 300 µM. Consider `C=CCOc1cccc(C2C(C(=O)c3ccc(C)o3)C(=O)C(=O)N2c2nccs2)c1` (configuration not stated) [3-(5-methylfuran-2-yl)carbonyl-4-oxidanyl-2-(3-prop-2-enoxyphenyl)-1-(1,3-thiazol-2-yl)-2H-pyrrol-5-one], for which the concentration giving a half-maximal response (EC50) is > 300 µM. Then `Cc1nnc(SC(=Cc2ccc(OCc3ccc(C(=O)O)cc3)cc2)C(=O)O)[nH]1` [4-[[4-[(E)-2-[(5-methyl-1H-1,2,4-triazol-3-yl)sulfanyl]-3-oxidanyl-3-oxidanylidene-prop-1-enyl]phenoxy]methyl]benzoic acid], with 17.8 µM.

With `O=C(O)c1ccccc1N=NCc1c(Sc2nnnn2-c2ccccc2)nc2ccccn2c1=O` [MLS000775267], the EC50 was > 300 µM. Then `O=C1N=c2ccc(Br)cc2=C1NNc1nnn[nH]1` [5-bromanyl-3-[2-(2H-1,2,3,4-tetrazol-5-yl)hydrazinyl]indol-2-one], with 14 µM; and `O=C(N/N=C/C1C=C(Cl)C=C([N+](=O)[O-])C1=O)c1ccc2c(c1)OCO2` (configuration not stated) [N'-[(E)-(3-chloranyl-5-nitro-6-oxidanylidene-cyclohexa-2,4-dien-1-ylidene)methyl]-1,3-benzodioxole-5-carbohydrazide], with 127 µM; and `COc1ccc(C(=O)CC=Nc2ccc([N+](=O)[O-])cc2C)c(OC)c1` [(E)-1-(2,4-dimethoxyphenyl)-3-(2-methyl-4-nitro-anilino)prop-2-en-1-one], with > 300 µM. The compound `C=c1[nH]n(-c2cccc(C(=O)O)c2)c(=O)c1=CC=Cc1ccco1` [SMR000113614] returned an EC50 of 19.9 µM. This lies in the double-digit micromolar range. As for `O=C(/C=C/c1ccco1)NCC(=O)NNC1=c2ccccc2=NC1=O` [MLS001075666], the figure is 13.1 µM; as for `O=C1N=c2ccccc2=C1NNc1cccc(Cl)c1` [(3E)-1H-indole-2,3-dione 3-[(3-chlorophenyl)hydrazone]], 125 µM. In the case of `Cc1ccc(C2C3CN(C(C)C)CCC3=C(C#N)C(=N)C2(C#N)C#N)cc1` (configuration not stated) [SMR000034220], it took 7.15 µM to reach a half-maximal effect (EC50). Against the preceding compound, the EC50 is about 17-fold lower. Then `c1ccc(CN=Nc2nc3ccccc3[nH]2)nc1`, with 72.9 µM; and `C=CCOc1ccc(C2C(C(=O)c3cccs3)C(=O)C(=O)N2c2nnc(C)s2)cc1` (configuration not stated) [1-(5-methyl-1,3,4-thiadiazol-2-yl)-4-oxidanyl-2-(4-prop-2-enoxyphenyl)-3-thiophen-2-ylcarbonyl-2H-pyrrol-5-one], with 10.8 µM; and `COc1cccc(C2C3=C(CC(c4ccco4)CC3=O)OC(=N)C2C#N)c1OCc1ccc(F)cc1` (configuration not stated) [SMR000021029], with > 300 µM. For the compound `CCN(CC)CCNC=C1C(=O)NC(=O)N(Cc2ccccc2)C1=O` [(5Z)-1-benzyl-5-[[2-(diethylamino)ethylamino]methylene]barbituric acid], the EC50 was > 300 µM.

As to `Cc1ccc(N=CC2Sc3ccccc3NC2=O)cc1` (configuration not stated) [(2E)-2-(p-toluidinomethylene)-4H-1,4-benzothiazin-3-one], the EC50 is > 300 µM. With `COc1cccc(C2C(C(=O)c3cc4cccc(OC)c4o3)C(=O)C(=O)N2c2cc(C)on2)c1OC` (configuration not stated) [2-(2,3-dimethoxyphenyl)-3-[(7-methoxy-1-benzofuran-2-yl)carbonyl]-1-(5-methyl-1,2-oxazol-3-yl)-4-oxidanyl-2H-pyrrol-5-one], the EC50 is > 300 µM. For the compound `CN1C(=O)/C(=C/c2ccc(-c3ccccc3[N+](=O)[O-])o2)S/C1=N/c1ccc(Cl)c(C(=O)O)c1` [2-Chloro-5-[3-methyl-5-[1-[5-(2-nitro-phenyl)-furan-2-yl]-meth-(Z)-ylidene]-4-oxo-thiazolidin-(2Z)-ylideneamino]-benzoic acid], a half-maximal response (EC50) required 36.3 µM. As for `CCN(CC)c1ccc(C=NC(C#N)C(=N)C#N)cc1` (configuration not stated) [SMR000023871], the half-maximal effective concentration (EC50) was 281 µM. As for `Cc1cc(CN=Nc2ccc([N+](=O)[O-])cn2)c(C)n1-c1cccc(C(=O)O)c1` [3-[2,5-dimethyl-3-[[(5-nitro-2-pyridinyl)hydrazinylidene]methyl]-1-pyrrolyl]benzoic acid], the figure is > 300 µM; as for `CC1=C(C#N)C(=O)N(C)C(=O)C1=CNNc1ccc(F)cc1` [MLS000702698], > 300 µM; as for `COc1cc(C2C3=C(CC(C)(C)CC3=O)OC(=N)C2C#N)cc2c1OCO2` (configuration not stated), > 300 µM.

For the compound `CC1(C)CC(=O)C2=C(C1)OC(=N)C(C#N)C21C(=O)N(CN2CCOCC2)c2ccccc21` (configuration not stated) [2-amino-2',5-diketo-7,7-dimethyl-1'-(morpholinomethyl)spiro[6,8-dihydrochromene-4,3'-indoline]-3-carbonitrile], the EC50 was > 300 µM. As for `Cc1cccc(NNC2=c3cc(Br)ccc3=NC2=O)c1` [5-bromo-3-[2-(3-methylphenyl)hydrazinyl]indol-2-one], the figure is 68.3 µM; as for `COc1ccc(N2C(=O)C(=Nc3ccccc3O)C(Cl)C2=O)cc1` (configuration not stated) [3-Chloro-4-(2-hydroxy-phenylamino)-1-(4-methoxy-phenyl)-pyrrole-2,5-dione], > 300 µM. Consider `CCOc1ccc(N2C(=O)NC(=O)C(=Cc3c[nH]c4ccccc34)C2=O)cc1` [(5E)-1-(4-ethoxyphenyl)-5-(1H-indol-3-ylmethylidene)-1,3-diazinane-2,4,6-trione], for which the response was half-maximal at 20.9 µM (EC50). As to `COc1ccc(N=CCC(=O)c2ccc(C)cc2)cc1OC` [SMR000269732], the EC50 was > 300 µM. With `O=CC(C=Nc1ccccn1)c1nc2ccccc2o1` (configuration not stated) [2-Benzooxazol-2-yl-3-(pyridin-2-ylamino)-propenal], the EC50 is > 300 µM. `COc1ccc(C2CC(c3ccc(Br)s3)=Nc3ncnn32)cc1OC` (configuration not stated) [SMR000032927] showed a concentration giving a half-maximal response (EC50) of 7.82 µM. As for `CC1(C)CC(=O)C2=C(C1)OC(=N)C(C#N)C2c1ccccc1` (configuration not stated) [2-amino-5-keto-7,7-dimethyl-4-phenyl-6,8-dihydro-4H-chromene-3-carbonitrile], the EC50 is > 300 µM. As to `Clc1ccc(C2=Nc3ncnn3C(c3ccco3)C2)cc1` (configuration not stated), the EC50 was 24.7 µM. In other words, the double-digit micromolar range. `C=c1c(C(=O)OC)c(O)c(=Cc2ccco2)n1-c1ccccc1` [MLS000780287]: the EC50 was 99 µM. `COc1ccc(C2C(C(=O)c3cccs3)C(=O)C(=O)N2c2nncs2)cc1` (configuration not stated) had an EC50 of 0.549 µM. Then `Brc1ccc(C2=Nc3ncnn3C(c3ccco3)C2)cc1` (configuration not stated), with > 300 µM; and `Cc1c(NC=C2C(=O)NC(=O)N(Cc3ccccc3)C2=O)c(=O)n(-c2ccccc2)n1C` [(5E)-1-benzyl-5-[[(1,5-dimethyl-3-oxo-2-phenylpyrazol-4-yl)amino]methylidene]-1,3-diazinane-2,4,6-trione], with > 300 µM; and `COc1cc(C2C3=C(CCCC3=O)OC(=N)C2C#N)cc(OC)c1OC(=O)N1CCOCC1` (configuration not stated) [4-(2-amino-3-cyano-5-oxo-5,6,7,8-tetrahydro-4H-chromen-4-yl)-2,6-dimethoxyphenyl morpholine-4-carboxylate], with > 300 µM. Then `COc1ccc(C2C3=C(CC(C)CC3=O)OC(=N)C2C#N)c(OC)c1OC` (configuration not stated) [2-amino-5-keto-7-methyl-4-(2,3,4-trimethoxyphenyl)-4,6,7,8-tetrahydrochromene-3-carbonitrile], with > 300 µM; and `C=c1c(C(=O)OC)c(O)c(=Cc2cccs2)n1-c1ccc(Cl)cc1` [(5E)-1-(4-chlorophenyl)-2-methyl-4-oxo-5-(thiophen-2-ylmethylidene)-3-pyrrolecarboxylic acid methyl ester], with > 300 µM. `COc1ccc(C2C(C(=O)c3cccs3)C(=O)C(=O)N2c2nnc(C)s2)cc1OC` (configuration not stated) [2-(3,4-dimethoxyphenyl)-1-(5-methyl-1,3,4-thiadiazol-2-yl)-4-oxidanyl-3-thiophen-2-ylcarbonyl-2H-pyrrol-5-one] registered an EC50 of 7.2 µM. Then `Cc1c(NC=C2C(=O)N(C)C(=O)c3ccccc32)c(=O)n(-c2ccccc2)n1C` [(4E)-4-[[(1,5-dimethyl-3-oxo-2-phenyl-4-pyrazolyl)amino]methylidene]-2-methylisoquinoline-1,3-dione], with > 300 µM.

These data come from BindingDB's records for doi:10.7270/Q28G8J4C (Broad Institute, 2009).
